tested on: NCI-60 human tumor cell lines; assay: NCI-60 five-dose assay, mean graph midpoint; format: cell-based; conditions: Homo sapiens, read-out: cytotoxicity (GI50, μM) MGM, mean graph midpoint of growth inhibition from 5 dose assay, ranging from 10^−8–10^−4 M

SMILES	GI50 [µM]
O=C1c2ccccc2-c2c1c1ccc(I)cc1c(=O)n2CCCn1ccnc1 [Compound 62, 5,6-Dihydro-6-(3-(1H-imidazol-1-yl)propyl)-3-iodo-5,11-dioxo-11H-indeno[1,2-c]isoquinoline]	≥ 0.944
O=C1c2ccccc2-c2c1c1ccc(Cl)cc1c(=O)n2C[C@H](O)CO [Compound 50, (S)-3-Chloro-5,6-dihydro-6-(2,3-dihydroxypropyl)-5,11-dioxo-11H-indeno[1,2-c]isoquinoline]	1.12
O=C1c2ccccc2-c2c1c1ccc(Cl)cc1c(=O)n2CCCN1CCOCC1 [Compound 69, 3-Chloro-5,6-dihydro-6-(3-morpholinopropyl)-5,11-dioxo-11H-indeno[1,2-c]isoquinoline]	4.17
O=C1c2ccccc2-c2c1c1ccc(C(F)(F)F)cc1c(=O)n2CCCn1ccnc1 [Compound 64, 3-(Trifluoromethyl)-5,6-dihydro-6-(3-(1H-imidazol-1-yl)-propyl)-5,11-dioxo-11H-indeno[1,2-c]isoquinoline]	1.07
O=C1c2ccccc2-c2c1c1ccc(F)cc1c(=O)n2CCCN1CCOCC1 [Compound 68, 3-Fluoro-5,6-dihydro-6-(3-morpholinopropyl)-5,11-dioxo-11H-indeno[1,2-c]isoquinoline]	2.75
O=C1c2ccccc2-c2c1c1cc(C(F)(F)F)ccc1c(=O)n2CCCn1ccnc1 [Compound 63, 2-(Trifluoromethyl)-5,6-dihydro-6-(3-(1H-imidazol-1-yl)-propyl)-5,11-dioxo-11H-indeno[1,2-c]isoquinoline]	≥ 0.944
O=C1c2ccccc2-c2c1c1ccc(F)cc1c(=O)n2CCCn1ccnc1 [Compound 60, 3-Fluoro-5,6-dihydro-6-(3-(1H-imidazol-1-yl)propyl)-5,11-dioxo-11H-indeno[1,2-c]isoquinoline]	0.692
CC[C@@]1(O)C(=O)OCc2c1cc1n(c2=O)Cc2cc3c(CN(C)C)c(O)ccc3nc2-1 [Compound 2, topotecan, reference compound]	0.0405 ± 0.0187

same assay, conditions: human

GI50 [µM]	SMILES
1.62	O=C1c2ccccc2-c2c1c1ccc(I)cc1c(=O)n2CCCn1ccnc1 [Compound 62, 5,6-Dihydro-6-(3-(1H-imidazol-1-yl)propyl)-3-iodo-5,11-dioxo-11H-indeno[1,2-c]isoquinoline]
